Laboratory results as given in the Kinase Knowledgebase extract (Sharma et al. 2016).

How the values were obtained:
ROCK2 (human) [1] = biological target: ROCK2 (human) (UniProt O75116); assay: Assessment of ROCK2 Kinase Activity using IMAP Assay
ROCK2 (human) [2] = biological target: ROCK2 (human) (UniProt O75116); assay: Assessment of ROCK2 Kinase Activity using Luciferin-Luciferase Assay

ROCK2 (human), sequence (O75116 whole entry, looked up): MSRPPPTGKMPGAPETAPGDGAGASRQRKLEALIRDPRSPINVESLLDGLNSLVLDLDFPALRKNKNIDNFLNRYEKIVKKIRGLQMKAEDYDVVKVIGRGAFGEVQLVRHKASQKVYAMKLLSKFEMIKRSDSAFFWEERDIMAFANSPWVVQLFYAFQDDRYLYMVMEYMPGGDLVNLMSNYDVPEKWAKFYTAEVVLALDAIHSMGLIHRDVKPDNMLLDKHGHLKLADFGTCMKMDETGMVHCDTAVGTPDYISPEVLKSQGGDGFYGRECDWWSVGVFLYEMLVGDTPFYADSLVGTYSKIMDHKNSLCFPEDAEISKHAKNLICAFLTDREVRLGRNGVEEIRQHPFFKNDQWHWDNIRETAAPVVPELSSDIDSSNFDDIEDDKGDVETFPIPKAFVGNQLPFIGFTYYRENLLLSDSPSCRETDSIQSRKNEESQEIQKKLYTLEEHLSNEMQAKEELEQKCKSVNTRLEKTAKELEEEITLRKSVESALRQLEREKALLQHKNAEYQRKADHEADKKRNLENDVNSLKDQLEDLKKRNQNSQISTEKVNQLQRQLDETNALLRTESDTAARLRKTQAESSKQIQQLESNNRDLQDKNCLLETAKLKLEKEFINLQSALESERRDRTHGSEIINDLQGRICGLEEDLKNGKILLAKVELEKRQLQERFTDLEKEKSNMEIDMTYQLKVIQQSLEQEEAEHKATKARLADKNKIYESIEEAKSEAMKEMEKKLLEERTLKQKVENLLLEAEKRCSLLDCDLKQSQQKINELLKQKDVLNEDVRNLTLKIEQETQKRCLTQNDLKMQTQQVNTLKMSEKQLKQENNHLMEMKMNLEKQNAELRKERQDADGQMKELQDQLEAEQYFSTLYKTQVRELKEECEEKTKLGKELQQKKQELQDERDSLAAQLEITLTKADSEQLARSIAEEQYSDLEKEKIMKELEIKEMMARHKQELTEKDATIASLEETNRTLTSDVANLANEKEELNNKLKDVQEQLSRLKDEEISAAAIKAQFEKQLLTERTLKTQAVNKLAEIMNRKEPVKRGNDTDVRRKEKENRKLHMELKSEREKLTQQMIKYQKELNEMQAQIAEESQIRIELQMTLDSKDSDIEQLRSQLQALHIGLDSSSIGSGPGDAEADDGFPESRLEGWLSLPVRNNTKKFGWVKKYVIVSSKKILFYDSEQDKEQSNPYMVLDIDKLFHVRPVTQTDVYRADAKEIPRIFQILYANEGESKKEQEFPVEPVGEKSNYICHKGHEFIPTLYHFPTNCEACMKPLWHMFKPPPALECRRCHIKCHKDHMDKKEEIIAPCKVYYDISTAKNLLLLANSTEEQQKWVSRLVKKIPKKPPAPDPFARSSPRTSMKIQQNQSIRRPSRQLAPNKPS

SMILES | IC50 (ROCK2 (human) [1]) [nM] | IC50 (ROCK2 (human) [2]) [nM]
CN1CCc2nc(NC(=O)c3cccc([C@H]4CCCN4C(=O)c4csc(-c5ccncc5)n4)c3)sc2C1 | 16 | 6.1
CN1CCc2nc(NC(=O)c3cccc([C@H]4CCCN4C(=O)c4ccc(-n5ccnc5)cc4)c3)sc2C1 | – | 14.5
CN1CCc2nc(NC(=O)c3cccc([C@H]4CCCN4C(=O)c4ccc5cc(O)ccc5c4)c3)sc2C1 | 4 | 2.1
COc1ccc(C(=O)N2CCC[C@@H]2c2cccc(C(=O)Nc3nc4c(s3)CN(C)CC4)c2)cc1C | – | 45.1
N#Cc1ccc(NC(=O)COc2cccc(C(=O)Nc3nc4c(s3)C[C@@H](NCCC(F)(F)F)CC4)c2)cc1 | 32 | 5.1
CN1CCc2nc(NC(=O)c3cccc([C@H]4CCCN4C(=O)c4ccc(-c5cnco5)cc4)c3)sc2C1 | 11.2 | 2.6
CN1CCc2nc(NC(=O)c3cccc([C@H]4CCCN4C(=O)Nc4cccc(C(N)=O)c4)c3)sc2C1 | – | 94.6
CN1CCc2nc(NC(=O)c3cccc([C@H]4CCCN4C(=O)c4nnn(-c5nonc5N)c4-c4ccccc4)c3)sc2C1 | 44 | 6
CN1CCc2nc(NC(=O)c3cccc([C@H]4CCCN4C(=O)c4cc(-c5ccncc5)[nH]n4)c3)sc2C1 | 4.1 | –
CN1CCc2nc(NC(=O)c3cccc(OCC(=O)Nc4ccc(C#N)cc4)c3)sc2C1 | – | 23.4
N#CCCN[C@H]1CCc2nc(NC(=O)c3cccc(OCC(=O)Nc4ccc(C#N)cc4)c3)sc2C1 | 27 | 5.2
CN1CCc2nc(NC(=O)c3cccc([C@H]4CCCN4C(=O)c4cn5cc(C(N)=O)ccc5n4)c3)sc2C1 | 7.4 | 2.5

Further lines, results first:

IC50 (ROCK2 (human) [1]) [nM] | IC50 (ROCK2 (human) [2]) [nM] | SMILES
13 | 4 | CN1CCc2nc(NC(=O)c3cccc([C@H]4CCCN4C(=O)c4csc(-c5cccnc5)n4)c3)sc2C1
– | 38 | COc1ccc(C(=O)N2CCC[C@@H]2c2cccc(C(=O)Nc3nc4c(s3)CN(C)CC4)c2)cc1Cl
– | 80.4 | CN1CCc2nc(NC(=O)c3cccc([C@H]4CCCN4C(=O)c4cccc(-c5cccnc5)c4)c3)sc2C1
– | 30.7 | COc1ccc(C(=O)N2CCC[C@@H]2c2cccc(C(=O)Nc3nc4c(s3)CN(C)CC4)c2)cc1OC
0.6 | – | N#Cc1cccc(NC(=O)N2CCC[C@@H]2c2cccc(C(=O)Nc3nc4c(s3)C[C@@H](N3CCOCC3)CC4)c2)c1
7.9 | 5.8 | COc1ccc(C(=O)N2CCC[C@@H]2c2cccc(C(=O)Nc3nc4c(s3)C[C@@H](N3CCOCC3)CC4)c2)cc1Cl
2.9 | – | N#Cc1cccc2c1CCN2C(=O)N1CCC[C@@H]1c1cccc(C(=O)Nc2nc3c(s2)C[C@@H](N2CCOCC2)CC3)c1
– | 91.4 | Cc1nnnn1-c1ccc(C(=O)N2CCC[C@@H]2c2cccc(C(=O)Nc3nc4c(s3)CN(C)CC4)c2)cc1
